Source: PubChem BioAssay (NCI)
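Grown in 96-well plates, cells were treated for 48 hours with each compound at five concentrations. Insufficient inhibition: endpoint recorded as highest concentration tested. TGI marks complete inhibition of growth.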

Tests used:
Assay in all cases: NCI anticancer screen, dose series, 48 h
[1] = test system: NCI-H226 lung
[2] = test system: UO-31 renal
[3] = test system: KM12 colon
[4] = test system: MDA-MB-435
[5] = test system: HT29 colon
[6] = test system: SK-MEL-28 melanoma
[7] = test system: SF-268 CNS
[8] = test system: MOLT-4 leukemia
[9] = test system: HCC-2998 colon
[10] = test system: RXF 393 renal
[11] = test system: HS 578T breast
[12] = test system: LOX IMVI melanoma
[13] = test system: NCI-H522 lung
[14] = test system: RPMI-8226 leukemia

Compound	TGI [1] [µM]	TGI [2] [µM]	TGI [3] [µM]	TGI [4] [µM]	TGI [5] [µM]	TGI [6] [µM]	TGI [7] [µM]	TGI [8] [µM]	TGI [9] [µM]	TGI [10] [µM]	TGI [11] [µM]	TGI [12] [µM]	TGI [13] [µM]	TGI [14] [µM]
CC[n+]1[b-](C(C)(C)C)n(/N=C(\C)C(C)(C)C)[b-](C(C)(C)C)[n+]1CC	> 100	> 100	> 100	> 100	> 100	> 100	> 100	> 100	> 100	> 100	> 100	> 100	> 100	–
Cc1cc(S(=O)(=O)Nc2nc(N)n(C)n2)c(S)cc1Cl	> 10	> 10	> 10	> 10	> 10	> 10	> 10	> 10	> 10	> 10	> 10	> 10	> 10	> 10
Cc1ccc(S(=O)(=O)C2=c3ncccc3=C3C(=O)c4ccccc4C(=O)C32)cc1 (stereo not drawn)	> 100	> 100	> 76.6	> 100	> 100	> 100	> 90.3	> 100	> 100	> 31.6	81.8	> 100	85.3	> 100
Cn1ncc2c(NCCc3ccccc3)nc(Cl)nc21	76.1	73	85.5	44.9	31	76.4	> 100	39.9	40.3	> 100	> 100	> 100	> 100	47.4
COC(=O)C1=NN2c3ccccc3CN([C@@H](C)c3ccccc3)C(=O)[C@@H]2C1	> 100	60.7	51.3	34	> 100	> 100	> 100	46.5	> 100	> 100	85.8	77.1	53.1	62.7
Cc1cc2c3c(ccc4ncc(c43)CN2c2ccc(NS(C)(=O)=O)cc2)[nH]1	78.3	78.4	> 100	> 100	> 100	> 100	51.5	> 100	> 100	> 100	> 100	> 100	> 100	55.3
COc1ccc(-c2nc3ccc(C)cc3o2)c(OC)c1	79.1	58.1	40.4	52.9	30.2	> 100	77.4	52.9	45.8	53.8	71.4	31	39.2	49.1
C=CCC1(O)c2cccc(O)c2C(=O)c2c(O)cccc21	> 100	> 100	> 100	> 100	67.9	> 100	> 100	> 100	43.7	53.4	63.1	57.2	75.8	> 100
C[C@H](CCc1nc(C#N)c(N)o1)[C@H]1CC[C@H]2[C@@H]3[C@@H](O)CC4C[C@@H](O)CC[C@]4(C)[C@H]3C[C@@H](O)[C@]12C (stereo partly drawn)	62.9	61.8	53.8	48.8	45.6	47.2	> 91.5	> 59.7	36.5	35.9	62.6	29.2	18.4	28.6
CC(=O)OC1CC(OC2C(O)CC(OC3C(O)CC(OC4CCC5(C)C(CCC6C5CC(O)C5(C)C(C7=CC(=O)OC7)CCC65O)C4)OC3C)OC2C)OC(C)C1O (stereo not drawn) (tested in a mixture with another compound)	0.176	0.169	0.116	0.357	0.0954	–	0.119	–	0.463	0.0812	0.435	0.0944	0.0275	–
Cc1cccc(C)c1NC(=S)/N=C/C1=C(O)c2ccccc2C1=O	> 100	> 86.1	> 100	> 80.1	> 79.2	> 100	> 100	–	> 100	> 100	> 100	> 100	17.9	31
O=[N+]([O-])c1cc(Cl)ccc1S(=O)(=O)c1ccccc1	> 100	> 100	> 100	> 100	> 100	> 100	> 100	> 100	> 100	> 100	> 100	> 100	> 100	> 100
OC[C@H]1CC(c2nn[nH]n2)[C@H](O)[C@@H]1O (stereo partly drawn)	> 100	> 100	> 100	> 100	> 100	> 100	> 100	> 100	> 100	> 100	> 100	> 100	> 100	> 100
CCCNc1[nH]c(C(C)=O)c(N)c1C(=S)Nc1ccccc1	75	> 100	> 100	55.9	53.2	68.3	86.8	> 100	> 100	65.3	> 100	63.4	> 100	–
CS(=O)(=O)C(=Cc1ccccc1Cl)S(C)(=O)=O	> 100	> 100	> 46.4	> 100	> 100	> 100	> 100	> 100	> 100	> 100	> 100	> 100	> 100	> 100
CCOC(=O)c1sc2nc(SC)nc(Nc3ccc(OC)c(OC)c3)c2c1N	> 100	> 100	> 100	> 100	> 100	52.7	80.9	–	> 100	8.97	64.3	> 100	> 100	> 100
C=CCCCC1(C)CCCCNC1=O (stereo not drawn)	> 10	> 10	> 10	> 10	> 10	> 10	> 10	> 10	> 10	> 10	> 10	> 10	–	> 10
CC(C)(C)SC1=CCC[C@@H](P(=O)(c2ccccc2)c2ccccc2)[C@@H]2CCC[C@@H]12	35.6	30.2	35.5	33.1	28.3	54.6	35.5	38.1	29.9	29.9	47.6	33.5	31.3	41.9
COc1cc(OC)c(/C=N/N=C(\N)NO)c(OC)c1	> 100	81.2	96.4	> 100	> 100	> 100	> 100	> 100	> 100	> 100	> 100	> 100	> 100	> 100
CCOC(=O)Cn1nc2ccc(Nc3nc4ccccc4nc3C(=O)OCC)cc2n1	> 100	> 100	> 100	> 100	> 100	> 100	> 100	> 100	> 100	58.2	> 100	> 100	> 100	> 100
COc1cc2c[n+](C)c3c4ccccc4ccc3c2cc1OC	14.4	> 100	2.65	15.6	> 47.6	18.1	6.77	20.6	42.4	32.1	13	45	5.57	10.1
COc1cc(/C=C2\NC(=O)N(/C=C3\C(=O)Oc4ccccc4C3=O)C2=O)ccc1O	> 100	> 100	> 100	> 100	> 100	–	> 100	> 100	> 100	99.2	> 100	> 100	> 100	> 100
CC(=O)CN=C(C)NNc1ccc([N+](=O)[O-])cc1[N+](=O)[O-]	> 100	> 100	–	> 100	> 100	> 100	> 100	> 100	> 100	> 100	> 100	> 100	> 100	> 100
CC(O[Si](C)(C)C(C)(C)C)[C@H](NC(=O)OCC(Cl)(Cl)Cl)C(=O)O (stereo partly drawn)	> 100	> 100	> 100	> 100	> 100	> 100	> 100	> 100	> 100	> 100	> 100	–	> 100	> 100
CCCCc1ccc(Nc2nc(Cl)c3[nH]cnc3n2)cc1	> 100	72.5	32	32.1	36.3	–	59.9	> 100	41.2	31.6	50.5	26.6	65.3	> 100
